Earlier results as cited in US11872245B2, “Antiseptic polymer and synthesis thereof” (TRIMPH IP PTY LIMITED, priority 2015, dated 2024).

Tests used:
V3 = V3 (Homo sapiens, UniProt P05106+P06756)
IIb3 = IIb3 (Homo sapiens, UniProt P05106+P08514)
Sequence of IIb3 (P08514 32-1039): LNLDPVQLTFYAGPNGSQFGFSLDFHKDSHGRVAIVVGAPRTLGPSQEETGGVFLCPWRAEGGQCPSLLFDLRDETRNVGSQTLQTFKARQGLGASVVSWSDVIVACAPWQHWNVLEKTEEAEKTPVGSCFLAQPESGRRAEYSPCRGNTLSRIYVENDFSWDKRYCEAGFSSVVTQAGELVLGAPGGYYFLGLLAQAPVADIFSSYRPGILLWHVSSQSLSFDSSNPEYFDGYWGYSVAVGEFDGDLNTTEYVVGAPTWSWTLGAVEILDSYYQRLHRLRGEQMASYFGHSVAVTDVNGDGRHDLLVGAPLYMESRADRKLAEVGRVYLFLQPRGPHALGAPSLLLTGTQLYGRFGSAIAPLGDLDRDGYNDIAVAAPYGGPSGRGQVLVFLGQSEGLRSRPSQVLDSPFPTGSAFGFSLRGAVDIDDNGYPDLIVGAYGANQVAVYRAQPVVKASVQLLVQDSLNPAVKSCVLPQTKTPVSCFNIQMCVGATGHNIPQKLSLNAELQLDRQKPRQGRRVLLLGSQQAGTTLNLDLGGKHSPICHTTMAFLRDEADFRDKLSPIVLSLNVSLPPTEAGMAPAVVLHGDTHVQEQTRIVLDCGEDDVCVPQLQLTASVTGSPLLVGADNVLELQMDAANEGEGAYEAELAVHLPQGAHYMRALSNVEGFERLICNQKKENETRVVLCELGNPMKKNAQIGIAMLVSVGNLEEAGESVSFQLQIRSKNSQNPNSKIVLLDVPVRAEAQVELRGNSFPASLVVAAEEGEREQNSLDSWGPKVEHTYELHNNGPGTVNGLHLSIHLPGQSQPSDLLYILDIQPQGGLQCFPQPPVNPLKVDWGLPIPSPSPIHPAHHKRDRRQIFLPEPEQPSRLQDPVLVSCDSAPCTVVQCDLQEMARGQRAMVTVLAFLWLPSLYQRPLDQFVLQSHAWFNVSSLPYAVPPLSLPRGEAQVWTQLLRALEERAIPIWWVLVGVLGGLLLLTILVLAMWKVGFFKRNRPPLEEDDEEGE
Sequence of IIb3 (P05106 27-788): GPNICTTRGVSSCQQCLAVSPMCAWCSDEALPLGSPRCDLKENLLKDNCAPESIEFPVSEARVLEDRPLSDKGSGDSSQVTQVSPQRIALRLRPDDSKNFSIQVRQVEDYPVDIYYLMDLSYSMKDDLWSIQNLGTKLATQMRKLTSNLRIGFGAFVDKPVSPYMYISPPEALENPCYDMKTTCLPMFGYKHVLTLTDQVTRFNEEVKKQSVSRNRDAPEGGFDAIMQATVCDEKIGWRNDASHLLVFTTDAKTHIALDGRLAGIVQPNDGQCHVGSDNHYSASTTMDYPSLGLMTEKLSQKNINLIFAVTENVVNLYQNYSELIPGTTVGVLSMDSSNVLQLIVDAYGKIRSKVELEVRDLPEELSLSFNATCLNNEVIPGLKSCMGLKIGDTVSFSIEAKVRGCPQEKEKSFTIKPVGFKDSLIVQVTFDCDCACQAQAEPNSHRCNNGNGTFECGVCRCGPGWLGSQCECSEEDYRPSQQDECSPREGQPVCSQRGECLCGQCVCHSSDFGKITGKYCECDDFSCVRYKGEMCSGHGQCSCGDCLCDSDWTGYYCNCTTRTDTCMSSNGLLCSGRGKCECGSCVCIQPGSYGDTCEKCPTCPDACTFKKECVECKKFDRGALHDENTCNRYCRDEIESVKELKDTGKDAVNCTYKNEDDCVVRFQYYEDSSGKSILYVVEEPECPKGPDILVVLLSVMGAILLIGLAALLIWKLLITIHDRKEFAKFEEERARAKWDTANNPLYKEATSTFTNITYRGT

Sequence of V3 (P06756 31-1048): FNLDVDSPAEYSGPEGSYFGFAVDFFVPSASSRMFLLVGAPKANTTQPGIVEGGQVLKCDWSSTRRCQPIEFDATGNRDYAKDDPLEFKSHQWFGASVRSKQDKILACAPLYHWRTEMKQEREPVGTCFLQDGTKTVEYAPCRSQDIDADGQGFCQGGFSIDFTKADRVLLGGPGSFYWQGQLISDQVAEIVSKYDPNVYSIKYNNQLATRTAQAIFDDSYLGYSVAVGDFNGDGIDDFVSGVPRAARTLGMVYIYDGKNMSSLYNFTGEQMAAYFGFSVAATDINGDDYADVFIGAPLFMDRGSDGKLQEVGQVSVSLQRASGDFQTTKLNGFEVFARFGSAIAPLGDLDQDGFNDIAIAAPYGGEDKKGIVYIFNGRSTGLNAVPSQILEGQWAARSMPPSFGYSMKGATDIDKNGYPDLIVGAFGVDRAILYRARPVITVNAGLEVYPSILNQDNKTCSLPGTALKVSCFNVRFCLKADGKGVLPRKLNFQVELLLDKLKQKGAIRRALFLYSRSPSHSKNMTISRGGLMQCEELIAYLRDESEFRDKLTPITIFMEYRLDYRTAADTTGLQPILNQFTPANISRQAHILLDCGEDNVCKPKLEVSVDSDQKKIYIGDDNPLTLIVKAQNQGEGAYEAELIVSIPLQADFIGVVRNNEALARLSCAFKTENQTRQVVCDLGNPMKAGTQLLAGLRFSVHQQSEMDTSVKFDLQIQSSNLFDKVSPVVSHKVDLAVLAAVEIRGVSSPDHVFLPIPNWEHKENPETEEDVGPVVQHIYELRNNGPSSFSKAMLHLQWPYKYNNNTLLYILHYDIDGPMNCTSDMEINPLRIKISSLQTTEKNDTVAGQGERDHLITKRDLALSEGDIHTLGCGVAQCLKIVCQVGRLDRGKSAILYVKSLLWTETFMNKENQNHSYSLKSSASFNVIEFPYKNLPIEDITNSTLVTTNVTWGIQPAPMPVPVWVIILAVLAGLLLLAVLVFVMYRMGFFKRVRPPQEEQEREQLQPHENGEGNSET
Sequence of V3 (P05106 27-788): as the sequence (P05106 27-788) above

For {GLY}{ARG}{GLY}{ASP}{SER} [GRGDS], the affinity (V3) is given as “intermediate affinity” and the affinity (IIb3) is given as “intermediate affinity”.
